The source of these data is paper PMC9540877, “Clinical Formulation Bridging of Gefapixant, a P2X3‐Receptor Antagonist, for the Treatment of Chronic Cough” (Clinical Pharmacology in Drug Development, 2022).

Series [1] in a line: Safety and tolerability in studies 1 to 4. In kind it is in vivo, human. The protocol:
Safety and tolerability for all studies were determined using clinical assessments, including physical examinations, vital signs, standard laboratory tests, 12‐lead electrocardiograms, and adverse events (AEs).

The conditions of series [2]: cited from earlier work.
The subject of a further series is MATE1/2K. To be noted: cited from earlier work.
Series [3] concerns organic anion transporter P1B1. Also noted: method as in PMID 34821075. To be noted: twice-daily gefapixant 45 mg; cited from earlier work.
On the set-up of series [4]: method as in PMID 35248186. As to conditions: patients with RCC or UCC, COUGH-1 and COUGH-2; cited from earlier work.

For `COc1cc(C(C)C)c(Oc2cnc(N)nc2N)cc1S(N)(=O)=O` [gefapixant, Gefapixant], in series [1] (all 4 studies), the “serious AEs” value is recorded as “no serious AEs” and the “severity of all AEs” value is “mild or moderate”. Besides, the “most commonly reported AEs” value in series [1] (studies 1 and 2) is “taste related”. In addition, the “most common AE” value in series [1] (studies 3 and 4) was “headache”. In series [2], the “excreted metabolites, share of the gefapixant dose” value is 14% and the “terminal half-life (t1/2)” value was “≈ 7 hours”. Besides, the “effect of inhibiting MATE1/2K via pyrimethamine on gefapixant exposure” value in the series with MATE1/2K was “does not meaningfully increase”. Also, the “effect on the pharmacokinetics of pitavastatin” value in series [3] is given as “no effect”. Moreover, the 24-hour cough frequency entry in series [4] was “significantly reduced”.
